In brackets after ≈: the same amount, converted by molar mass.
How the values were obtained:
[1] = Thermodynamic solubility of the compound; format: physicochemical; conditions: read-out: Therm_solubility
[2] = Permeability in human Caco2 cells; format: ADME, cell-based; conditions: Caco-2, read-out: permeability
[3] = target: Methionine aminopeptidase 2 (Homo sapiens, UniProt P50579); test: Inhibition of recombinant human N-terminal His tagged MetAP-2 using tripeptide Met-Ala-Ser as substrate preincubated for 15 mins followed by substrate addition measured after 45 mins by L-amino acid oxidase enzyme coupled assay
Chain of Methionine aminopeptidase 2 (P50579 whole entry): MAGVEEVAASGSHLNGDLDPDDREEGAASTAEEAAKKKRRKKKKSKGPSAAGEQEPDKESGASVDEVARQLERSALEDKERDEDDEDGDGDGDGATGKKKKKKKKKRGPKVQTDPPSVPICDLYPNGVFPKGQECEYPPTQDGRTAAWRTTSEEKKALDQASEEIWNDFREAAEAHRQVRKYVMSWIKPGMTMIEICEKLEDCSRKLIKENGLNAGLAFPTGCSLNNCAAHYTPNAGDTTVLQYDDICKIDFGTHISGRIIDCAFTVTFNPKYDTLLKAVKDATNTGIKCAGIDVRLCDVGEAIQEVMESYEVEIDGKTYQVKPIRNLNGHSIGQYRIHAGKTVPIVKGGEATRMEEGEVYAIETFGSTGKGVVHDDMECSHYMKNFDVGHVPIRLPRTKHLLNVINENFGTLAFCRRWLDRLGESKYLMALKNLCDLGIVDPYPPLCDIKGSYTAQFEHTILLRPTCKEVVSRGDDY

## c1ccc2c(OC[C@H]3CCCN3c3ccnc4ncnn34)cncc2c1
[1]
  solubility thermodynamic: 171 µg/mL (≈ 494 µM)
[2]
  Papp: 21 ×10⁻⁶ cm/s

## Fc1cccc(OC[C@H]2CCCN2c2ncnc3[nH]ccc23)c1
[3]
  IC50: > 50 µM

## Clc1ccccc1OC[C@H]1CCCN1c1ncnc2ncccc12
[3]
  IC50: > 50 µM
